From US20240254118A1, “PRMT5 INHIBITORS AND USES THEREOF” (Gilead Sciences, Inc., priority 2022, published 2024)

Experiments:
[1] = test system: SDMA signal (PRMT5 inhibition) in HCT116 MTAP-deleted cells; test: Symmetric di-methyl arginine image-based high content screen assay (SDMA assay), HCT116 MTAP-deleted; format: cell-based; conditions: SDMA assay; for EC50: Homo sapiens, HCT-116, 72 h, 3 days of treatment, cell line not given, taken as HCT116 MTAP-deleted, read-out: EC50 (SDMA assay); for EC50 selectivity (SDMA assay): taken as HCT116 WT versus MTAP-deleted
Procedure, shortened: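 Read-out: per-cell mean SDMA immunofluorescence (Alexa Fluor 488 secondary), cells segmented by DAPI on a high-content imager. Compound exposure in HCT116 MTAP-deleted cells lasted until fixation on Day 3; overnight 4° C primary anti-SDMA antibody staining.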

[2] = test system: HCT116 MTAP-deleted cells; test: Cell viability assay (CellTiter-Glo, 7 days), HCT116 MTAP-deleted; conditions: Homo sapiens, HCT-116, 168 h

SMILES | EC50 [1] | EC50 selectivity (SDMA assay) [1] | CC50 [2]
CN(C(=O)c1cocn1)N(Cc1ccc(C(F)(F)F)cc1)C(=O)c1ccc2nc(N)c3cnn(C)c3c2c1 [Example 218, N′-(4-amino-1-methyl-1H-pyrazolo[4,3-c]quinoline-8-carbonyl)-N-methyl-N′-(4-(trifluoromethyl)benzyl)oxazole-4-carbohydrazide] | < 1 nM | 6 | < 100 nM
CN(C(=O)c1ncco1)N(Cc1ccc(C(F)(F)F)cc1)C(=O)c1ccc2nc(N)c3cnn(C)c3c2c1 [Example 219, N′-(4-amino-1-methyl-1H-pyrazolo[4,3-c]quinoline-8-carbonyl)-N-methyl-N′-(4-(trifluoromethyl)benzyl)oxazole-2-carbohydrazide] | < 1 nM | 9 | < 100 nM
CC(=O)N(C)N(Cc1ccc(-c2cnc(C(F)(F)F)cc2C)cc1F)C(=O)c1ccc2nc(N)c3cnn(C)c3c2c1 [Example 220, N′-acetyl-4-amino-N-(2-fluoro-4-(4-methyl-6-(trifluoromethyl)pyridin-3-yl)benzyl)-N′,1-dimethyl-1H-pyrazolo[4,3-c]quinoline-8-carbohydrazide] | 1 to 5 nM | 15 | < 100 nM
CC(=O)N(C)N(Cc1ccc(-c2cnn(C(F)(F)F)c2)cc1F)C(=O)c1ccc2nc(N)c3cnn(C)c3c2c1 [Example 222, N′-acetyl-4-amino-N-(2-fluoro-4-(1-(trifluoromethyl)-1H-pyrazol-4-yl)benzyl)-N′,1-dimethyl-1H-pyrazolo[4,3-c]quinoline-8-carbohydrazide] | < 1 nM | 123 | < 100 nM
CC(=O)N(C)N(Cc1ccc(-c2cn(C(F)(F)F)cn2)cc1F)C(=O)c1ccc2nc(N)c3cnn(C)c3c2c1 [Example 223, N′-acetyl-4-amino-N-(2-fluoro-4-(1-(trifluoromethyl)-1H-imidazol-4-yl)benzyl)-N′,1-dimethyl-1H-pyrazolo[4,3-c]quinoline-8-carbohydrazide] | 1 to 5 nM | 139 | < 100 nM
CC(=O)N(C)N(Cc1ccc(C2CC2)nc1F)C(=O)c1ccc2nc(N)c3cnn(C)c3c2c1 [Example 228, N′-acetyl-4-amino-N-((6-cyclopropyl-2-fluoropyridin-3-yl)methyl)-N′,1-dimethyl-1H-pyrazolo[4,3-c]quinoline-8-carbohydrazide] | 1 to 5 nM | 205 | < 100 nM
CC(=O)N(C)N(Cc1ccc(-c2ccc(C(F)(F)F)nc2)cc1F)C(=O)c1ccc2nc(N)c3cnn(C)c3c2c1 [Example 229, N′-acetyl-4-amino-N-(2-fluoro-4-(6-(trifluoromethyl)pyridin-3-yl)benzyl)-N′,1-dimethyl-1H-pyrazolo[4,3-c]quinoline-8-carbohydrazide] | 1 to 5 nM | 43 | < 100 nM
CN(C(=O)C1CC1)N(Cc1ccc(-c2cnn(C(F)(F)F)c2)cc1F)C(=O)c1ccc2nc(N)c3cnn(C)c3c2c1 [Example 230, 4-amino-N′-(cyclopropanecarbonyl)-N-(2-fluoro-4-(1-(trifluoromethyl)-1H-pyrazol-4-yl)benzyl)-N′,1-dimethyl-1H-pyrazolo[4,3-c]quinoline-8-carbohydrazide] | < 1 nM | 228 | < 100 nM
CC(=O)N(C)N(Cc1ccc(C2CC2)nc1)C(=O)c1ccc2nc(N)c3cnn(C)c3c2c1 [Example 232, N′-acetyl-4-amino-N-((6-cyclopropylpyridin-3-yl)methyl)-N′,1-dimethyl-1H-pyrazolo[4,3-c]quinoline-8-carbohydrazide] | 1 to 5 nM | 298 | < 100 nM
CC(=O)N(C)N(Cc1ccc(-c2cnsc2)cc1F)C(=O)c1ccc2nc(N)c3cnn(C)c3c2c1 [Example 233, N′-acetyl-4-amino-N-(2-fluoro-4-(isothiazol-4-yl)benzyl)-N′,1-dimethyl-1H-pyrazolo[4,3-c]quinoline-8-carbohydrazide] | < 1 nM | 89 | < 100 nM
CC(=O)N(C)N(Cc1ccc(-c2ccns2)cc1F)C(=O)c1ccc2nc(N)c3cnn(C)c3c2c1 [Example 234, N′-acetyl-4-amino-N-(2-fluoro-4-(isothiazol-5-yl)benzyl)-N′,1-dimethyl-1H-pyrazolo[4,3-c]quinoline-8-carbohydrazide] | < 1 nM | 39 | < 100 nM
CC(=O)N(C)N(Cc1ccc(-c2cnn(C3CC3)c2)cc1F)C(=O)c1ccc2nc(N)c3cnn(C)c3c2c1 [Example 236, N′-acetyl-4-amino-N-(4-(1-cyclopropyl-1H-pyrazol-4-yl)-2-fluorobenzyl)-N′,1-dimethyl-1H-pyrazolo[4,3-c]quinoline-8-carbohydrazide] | < 1 nM | 203 | < 100 nM

The next lines start with results.

EC50 [1] | EC50 selectivity (SDMA assay) [1] | SMILES | CC50 [2]
< 1 nM | 54 | CC(=O)NN(Cc1nc2cc(C(F)(F)F)ccc2s1)C(=O)c1cc2c(cc1F)nc(N)c1cnn(C)c12 [Example 216, N′-acetyl-4-amino-7-fluoro-1-methyl-N-[[5-(trifluoromethyl)-1,3-benzothiazol-2-yl]methyl]pyrazolo[4,3-c]quinoline-8-carbohydrazide] | < 100 nM
1 to 5 nM | 218 | CN(C(=O)C1CC1)N(Cc1ccc(Cl)cn1)C(=O)c1ccc2nc(N)c3cnn(C)c3c2c1 [Example 221, 4-amino-N-((5-chloropyridin-2-yl)methyl)-N′-(cyclopropanecarbonyl)-N′,1-dimethyl-1H-pyrazolo[4,3-c]quinoline-8-carbohydrazide] | < 100 nM
1 to 5 nM | 86 | Cc1scnc1C(=O)N(C)N(Cc1ccc(C(F)(F)F)cn1)C(=O)c1ccc2nc(N)c3cnn(C)c3c2c1 [Example 226, N′-(4-amino-1-methyl-1H-pyrazolo[4,3-c]quinoline-8-carbonyl)-N,5-dimethyl-N′-((5-(trifluoromethyl)pyridin-2-yl)methyl)thiazole-4-carbohydrazide] | < 100 nM
1 to 5 nM | 18 | CC(=O)N(C)N(Cc1ccc(-c2ccc(C(F)(F)F)cc2)cc1F)C(=O)c1ccc2nc(N)c3cnn(C)c3c2c1 [Example 231, N′-acetyl-4-amino-N-((3-fluoro-4′-(trifluoromethyl)-[1,1′-biphenyl]-4-yl)methyl)-N′,1-dimethyl-1H-pyrazolo[4,3-c]quinoline-8-carbohydrazide] | < 100 nM
1 to 5 nM | 259 | CN(C(=O)C1CC1)N(Cc1ccc(F)cc1)C(=O)c1ccc2nc(N)c3cnn(C)c3c2c1 [Example 235, 4-amino-N′-(cyclopropanecarbonyl)-N-(4-fluorobenzyl)-N′,1-dimethyl-1H-pyrazolo[4,3-c]quinoline-8-carbohydrazide] | < 100 nM
< 1 nM | 77 | CN(C(=O)C1CC1)N(Cc1ccc(-c2cnn(C(F)F)c2)cc1F)C(=O)c1ccc2nc(N)c3cnn(C)c3c2c1 [Example 238, 4-amino-N′-(cyclopropanecarbonyl)-N-(4-(1-(difluoromethyl)-1H-pyrazol-4-yl)-2-fluorobenzyl)-N′,1-dimethyl-1H-pyrazolo[4,3-c]quinoline-8-carbohydrazide] | < 100 nM
